As usually defined, the Kd is the equilibrium constant for the complex coming apart.

This assay addresses α7 nAChR Subtype (Rattus norvegicus, UniProt Q05941). It counts as binding. The following applies: read-out: KD of radioligand.

α7 nAChR Subtype, sequence (Q05941 23-502 limits assumed): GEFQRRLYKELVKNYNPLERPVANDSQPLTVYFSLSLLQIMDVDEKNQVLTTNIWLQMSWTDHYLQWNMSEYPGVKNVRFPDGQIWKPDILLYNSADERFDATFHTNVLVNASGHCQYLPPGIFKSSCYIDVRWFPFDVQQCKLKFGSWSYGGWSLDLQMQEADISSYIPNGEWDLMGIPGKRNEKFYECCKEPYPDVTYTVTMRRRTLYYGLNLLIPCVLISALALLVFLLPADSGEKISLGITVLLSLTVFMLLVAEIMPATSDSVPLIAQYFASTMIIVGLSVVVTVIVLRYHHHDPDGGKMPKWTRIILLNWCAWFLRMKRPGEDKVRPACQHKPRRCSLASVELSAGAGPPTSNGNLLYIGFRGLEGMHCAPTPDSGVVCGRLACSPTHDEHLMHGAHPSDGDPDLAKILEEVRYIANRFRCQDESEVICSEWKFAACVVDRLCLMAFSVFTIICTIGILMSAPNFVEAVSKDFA

Turning to [^125I]α-Bungarotoxin [[^125I]-α-BTX], the equilibrium dissociation constant (Kd) was determined as 1.67 nM.

The record behind these values is US7417049B2 (priority 2002, dated 2008).
